Data set [1] can be described thus: Biodistribution in plasma and brain after single oral dose in female CB17 SCID mice. It is filed as in vivo. As to conditions: mouse. The method, then: Female non-tumor bearing Fox Chase CB17 SCID mice were orally administered a single dose as specified in Table B1.
Brain tissues were excised and plasma was collected from all the animals receiving Compound I, or tucatinib at 1 hour, 4 hours, and 8 hours post-administration. Tucatinib was used as a reference agent. Tucatinib is a clinically approved therapy for HER2 positive breast cancer patients with brain metastases. The harvested brains were rinsed in ice-cold phosphate-buffered saline and weighed. All plasma and brain samples were stored at approximately −80° C. until thawed for LC-MS/MS analysis.
Prior to analysis, brain tissues were homogenized 1:5 with phosphate buffer. Average free brain-to-free plasma ratio (Kp,uu) was calculated from individual mice by using total concentration values determined in the brain and plasma at individual time points, or by calculating the area under the curve (AUC) and converting the values to free concentration (or AUC) with in vitro binding parameters determined in the brain (fu,b) and plasma (fu,p) as follows:
Kp,uu=Brain Concentration (or AUC)*fu,b/Plasma Concentration (or AUC)*fu,p.
Free fraction in the brain (fu,b) and in plasma (fu,p) was determined with equilibrium dialysis as follows: The brain tissue homogenate or plasma from the mice were spiked to yield a final concentration of 1 μM Compound I, or 5 μM tucatinib. Compound I and tucatinib were incubated in equilibrium dialysis plate on a shaking incubator at 37° C. with 5% CO2 at 450 rpm for 8 hours and 24 hours, respectively. Following the incubation, aliquots of the matrix and the buffer samples were sampled and the concentration of Compound I, or tucatinib were determined.
where fu,b,d is fraction unbound determined with 20% brain homogenate.

The target of the next data set is T1, EGFR_L792H (Homo sapiens, UniProt P00533, L792H).
T1 construct: purchased SignalChem E10-122J2G
The data set is described as follows: EGFR kinase activity (AQT0794 peptide, Sox fluorescence). It is filed as biochemical. As to conditions: 1 mM ATP, 1.0 nM enzyme, room temperature. The method, then:
(§1) Compound I was dissolved in DMSO to generate a 10 mM stock solution. Dosing solutions for biochemical assays were prepared by serial dilution in DMSO followed by dilution in assay buffers as described in the experimental procedures. Stock formulations were stored at −80° C. and dosing solutions were prepared for each experiment immediately prior to use.
(§2) Activity of human recombinant EGFR wildtype and mutant proteins was measured by the phosphorylation of a peptide substate via chelation-enhanced fluorescence using the sulfonamido-oxine (Sox) chromophore detection format. Compound I was solubilized in DMSO. 16-point half log titrations in 100% DMSO were carried out by a Bravo liquid handler (Agilent) in a 384-well polypropylene plate (Greiner Cat. #781201). Using the Bravo liquid handler, intermediate 1:10 dilutions in a 384-well polypropylene plate were created in assay buffer. For the enzymatic reactions, 5 μL from the intermediate compound dilution plate was transferred to a low volume 384 well, black flat-bottom polystyrene microplate (Greiner Cat. #784076). A separate plate was generated for each enzyme. Next, 5 μL of a 4× ATP/AQT0794 working solution was added to the assay plate. Finally, 10 μL of 2× enzyme was added to start the reactions. The plate was sealed with a PerkinElmer TopSeal-A Plus plate seal (Cat. #6050185) and read at excitation (360 nm) and emission (492 nm) in continuous kinetic mode every 2 minutes for 3 hours at room temperature. Reactions were performed in 50 mM HEPES, pH 7.5, 1 mM ATP, 1.0 mM DTT, 0.015% Brij-35, 0.01% BSA, 1.0 mM EGTA, 10 mM MgCl2, 10 μM EGFR peptide substrate probe from AssayQuant (Cat. #AQT0794) plus recombinant EGFR protein (Table 1). The final DMSO concentration was 2.5%.
(§3) Real-time continuous kinetic data were loaded into Dotmatics software where slopes were calculated, converted to % inhibitions and IC50s were generated using the four-parameter non-linear regression curve fit. Reactions lacking enzymes were used as 100% inhibition controls. After addition of recombinant EGFR and its substrates ATP and AQT0794, the activity of EGFR was measured by quantification of the phosphorylation of the AQT0794 peptide substate via chelation-enhanced fluorescence using the sulfonamido-oxine (Sox) chromophore detection format with diminishing signal indicative of inhibition of EGFR activity.

A further data set concerns the target T2, EGFR WT (Homo sapiens, UniProt P00533).
T2 construct: purchased ThermoFisher PV3872
The description is as above. The format is biochemical. As to conditions: 1 mM ATP, 2.0 nM enzyme, room temperature. The method, then:
as §1, §2, §3

For a further data set, the target named is T3, EGFR_d746-750 G724S (Homo sapiens, UniProt P00533, DEL746-750/G724S).
T3 construct: purchased SignalChem E10-122D3G
T3 sequence (P00533 with tags, fused parts or gaps G724S/DEL746-750): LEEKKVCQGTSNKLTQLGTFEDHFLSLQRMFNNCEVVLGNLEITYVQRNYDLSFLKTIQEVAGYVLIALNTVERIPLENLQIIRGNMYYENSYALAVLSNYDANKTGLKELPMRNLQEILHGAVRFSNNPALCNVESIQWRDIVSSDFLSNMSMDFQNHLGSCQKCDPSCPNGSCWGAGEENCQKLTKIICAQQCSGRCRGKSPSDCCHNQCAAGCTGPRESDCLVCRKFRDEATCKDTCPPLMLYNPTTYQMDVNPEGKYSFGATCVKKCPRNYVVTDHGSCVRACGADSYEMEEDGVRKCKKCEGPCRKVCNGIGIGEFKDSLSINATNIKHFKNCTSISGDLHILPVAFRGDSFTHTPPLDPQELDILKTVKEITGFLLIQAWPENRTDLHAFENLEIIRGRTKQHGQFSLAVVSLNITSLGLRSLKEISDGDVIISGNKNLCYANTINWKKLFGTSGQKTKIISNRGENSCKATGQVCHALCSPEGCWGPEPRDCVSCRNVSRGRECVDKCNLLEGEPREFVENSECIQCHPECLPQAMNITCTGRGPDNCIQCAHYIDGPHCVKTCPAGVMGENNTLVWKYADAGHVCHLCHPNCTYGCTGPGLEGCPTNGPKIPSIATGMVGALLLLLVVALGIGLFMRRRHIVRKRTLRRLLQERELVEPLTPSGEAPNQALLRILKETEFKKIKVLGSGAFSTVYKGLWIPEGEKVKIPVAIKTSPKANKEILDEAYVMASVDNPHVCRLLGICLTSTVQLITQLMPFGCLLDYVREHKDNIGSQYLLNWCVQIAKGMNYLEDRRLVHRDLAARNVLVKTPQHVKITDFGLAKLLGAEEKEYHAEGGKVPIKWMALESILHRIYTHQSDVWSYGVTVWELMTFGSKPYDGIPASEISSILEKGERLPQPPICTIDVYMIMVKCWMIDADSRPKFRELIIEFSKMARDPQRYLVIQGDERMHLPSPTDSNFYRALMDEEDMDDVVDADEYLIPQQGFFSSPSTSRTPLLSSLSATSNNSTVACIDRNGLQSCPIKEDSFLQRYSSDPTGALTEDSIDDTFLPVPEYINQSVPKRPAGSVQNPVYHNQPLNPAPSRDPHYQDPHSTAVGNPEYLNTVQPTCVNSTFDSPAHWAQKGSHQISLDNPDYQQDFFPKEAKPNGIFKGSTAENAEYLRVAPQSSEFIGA
The description is as above. It is filed as biochemical. As to conditions: 1 mM ATP, 2.0 nM enzyme, room temperature. The method, then:
as §1, §2, §3

The target in the next data set is T4, EGFR_d746-750 S768I (Homo sapiens, UniProt P00533, DEL746-750/S768I).
T4 construct: purchased SignalChem E10-122B3G
T4 sequence (P00533 with tags, fused parts or gaps DEL746-750/S768I): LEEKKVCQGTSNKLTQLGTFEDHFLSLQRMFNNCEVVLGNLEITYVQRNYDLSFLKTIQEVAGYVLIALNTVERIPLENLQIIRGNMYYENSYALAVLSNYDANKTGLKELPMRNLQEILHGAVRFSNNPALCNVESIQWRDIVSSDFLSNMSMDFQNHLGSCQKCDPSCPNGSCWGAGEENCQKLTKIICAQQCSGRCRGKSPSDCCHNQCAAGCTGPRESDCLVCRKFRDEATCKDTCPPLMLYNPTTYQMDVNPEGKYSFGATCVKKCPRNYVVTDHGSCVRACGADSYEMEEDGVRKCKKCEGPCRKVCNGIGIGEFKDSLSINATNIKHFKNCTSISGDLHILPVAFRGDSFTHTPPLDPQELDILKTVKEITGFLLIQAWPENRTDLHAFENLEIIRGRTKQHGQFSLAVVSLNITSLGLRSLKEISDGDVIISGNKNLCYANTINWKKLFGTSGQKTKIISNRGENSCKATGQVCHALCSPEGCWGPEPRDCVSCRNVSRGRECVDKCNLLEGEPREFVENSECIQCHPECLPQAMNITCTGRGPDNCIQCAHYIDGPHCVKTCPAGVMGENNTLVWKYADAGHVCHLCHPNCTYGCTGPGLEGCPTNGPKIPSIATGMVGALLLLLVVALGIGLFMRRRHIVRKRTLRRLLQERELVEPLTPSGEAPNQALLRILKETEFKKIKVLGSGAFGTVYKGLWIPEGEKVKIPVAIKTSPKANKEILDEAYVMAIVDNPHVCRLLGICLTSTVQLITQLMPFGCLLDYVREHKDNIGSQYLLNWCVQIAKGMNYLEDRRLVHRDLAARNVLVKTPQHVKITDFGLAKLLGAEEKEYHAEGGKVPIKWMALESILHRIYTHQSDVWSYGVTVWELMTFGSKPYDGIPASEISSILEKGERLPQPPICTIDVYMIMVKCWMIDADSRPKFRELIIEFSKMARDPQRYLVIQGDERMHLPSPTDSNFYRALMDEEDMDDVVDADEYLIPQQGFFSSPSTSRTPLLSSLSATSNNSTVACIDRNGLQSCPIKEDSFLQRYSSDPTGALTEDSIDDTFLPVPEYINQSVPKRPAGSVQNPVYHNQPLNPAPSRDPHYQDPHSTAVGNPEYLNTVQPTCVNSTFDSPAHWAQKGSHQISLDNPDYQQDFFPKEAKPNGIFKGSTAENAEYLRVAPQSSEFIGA
Described as above. It is filed as biochemical. As to conditions: 1 mM ATP, 2.0 nM enzyme, room temperature. The method, then: as §1, §2, §3

For another data set, the target named is T5, EGFR_G719C (Homo sapiens, UniProt P00533, G719C).
T5 construct: purchased SignalChem E10-12FG
T5 sequence (P00533 25-1210 G719C): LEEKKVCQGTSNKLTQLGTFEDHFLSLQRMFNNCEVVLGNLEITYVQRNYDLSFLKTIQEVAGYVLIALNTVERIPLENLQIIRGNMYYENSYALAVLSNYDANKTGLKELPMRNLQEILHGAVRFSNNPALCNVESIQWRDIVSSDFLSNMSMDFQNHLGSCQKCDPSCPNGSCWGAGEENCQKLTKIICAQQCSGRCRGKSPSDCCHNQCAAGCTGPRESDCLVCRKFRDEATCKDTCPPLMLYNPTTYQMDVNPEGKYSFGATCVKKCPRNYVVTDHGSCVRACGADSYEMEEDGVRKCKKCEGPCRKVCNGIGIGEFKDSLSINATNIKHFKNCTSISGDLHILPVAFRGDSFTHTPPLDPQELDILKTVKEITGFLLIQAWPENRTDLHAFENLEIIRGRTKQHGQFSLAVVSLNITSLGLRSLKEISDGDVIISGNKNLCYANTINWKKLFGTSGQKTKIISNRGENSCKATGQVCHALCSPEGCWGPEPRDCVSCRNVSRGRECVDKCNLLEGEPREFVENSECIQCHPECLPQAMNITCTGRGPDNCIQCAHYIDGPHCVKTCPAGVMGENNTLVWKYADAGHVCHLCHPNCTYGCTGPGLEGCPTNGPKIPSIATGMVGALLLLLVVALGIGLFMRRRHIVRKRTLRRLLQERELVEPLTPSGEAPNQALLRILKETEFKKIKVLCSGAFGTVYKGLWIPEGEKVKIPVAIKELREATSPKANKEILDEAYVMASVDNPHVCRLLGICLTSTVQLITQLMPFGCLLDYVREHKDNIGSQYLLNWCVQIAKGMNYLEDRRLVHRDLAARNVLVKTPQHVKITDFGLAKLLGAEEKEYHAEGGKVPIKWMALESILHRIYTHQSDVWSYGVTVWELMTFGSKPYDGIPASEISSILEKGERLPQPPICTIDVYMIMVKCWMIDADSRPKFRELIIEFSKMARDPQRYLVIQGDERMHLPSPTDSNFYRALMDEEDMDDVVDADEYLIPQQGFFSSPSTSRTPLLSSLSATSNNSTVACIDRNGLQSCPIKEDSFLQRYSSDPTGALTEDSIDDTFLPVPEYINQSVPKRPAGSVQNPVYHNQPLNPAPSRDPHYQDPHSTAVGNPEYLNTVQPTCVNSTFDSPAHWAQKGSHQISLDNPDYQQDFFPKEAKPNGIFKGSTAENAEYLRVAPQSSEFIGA
The description is as above. The format is biochemical. As to conditions: 1 mM ATP, 5.0 nM enzyme, room temperature. The method, then:
as §1, §2, §3

The next data set concerns the target T6, EGFR_L718Q (Homo sapiens, UniProt P00533, L718Q).
T6 construct: purchased SignalChem E10-122G2G
The description is as above. The format is biochemical. As to conditions: 1 mM ATP, 2.0 nM enzyme, room temperature. The method, then:
as §1, §2, §3

In the next data set the target is T7, EGFR_G719S (Homo sapiens, UniProt P00533, G719S).
T7 construct: purchased SignalChem E10-12HG
The data set is described as above. The format is biochemical. As to conditions: 1 mM ATP, 1.0 nM enzyme, room temperature. The method, then: as §1, §2, §3

The next data set addresses T8, EGFR_L747S (Homo sapiens, UniProt P00533, L747S).
T8 construct: purchased SignalChem E10-122Y2G
The data set is described as above. It is filed as biochemical. As to conditions: 1 mM ATP, 0.5 nM enzyme, room temperature. The method, then:
as §1, §2, §3

Results on 1 molecule are retold here after US20260306491A1, “EGFR INHIBITOR FOR TREATING CANCERS COMPRISING ATYPICAL EGFR MUTATIONS” (ORIC Pharmaceuticals, Inc., priority 2023, published 2026).

T2 sequence (P00533 25-1210): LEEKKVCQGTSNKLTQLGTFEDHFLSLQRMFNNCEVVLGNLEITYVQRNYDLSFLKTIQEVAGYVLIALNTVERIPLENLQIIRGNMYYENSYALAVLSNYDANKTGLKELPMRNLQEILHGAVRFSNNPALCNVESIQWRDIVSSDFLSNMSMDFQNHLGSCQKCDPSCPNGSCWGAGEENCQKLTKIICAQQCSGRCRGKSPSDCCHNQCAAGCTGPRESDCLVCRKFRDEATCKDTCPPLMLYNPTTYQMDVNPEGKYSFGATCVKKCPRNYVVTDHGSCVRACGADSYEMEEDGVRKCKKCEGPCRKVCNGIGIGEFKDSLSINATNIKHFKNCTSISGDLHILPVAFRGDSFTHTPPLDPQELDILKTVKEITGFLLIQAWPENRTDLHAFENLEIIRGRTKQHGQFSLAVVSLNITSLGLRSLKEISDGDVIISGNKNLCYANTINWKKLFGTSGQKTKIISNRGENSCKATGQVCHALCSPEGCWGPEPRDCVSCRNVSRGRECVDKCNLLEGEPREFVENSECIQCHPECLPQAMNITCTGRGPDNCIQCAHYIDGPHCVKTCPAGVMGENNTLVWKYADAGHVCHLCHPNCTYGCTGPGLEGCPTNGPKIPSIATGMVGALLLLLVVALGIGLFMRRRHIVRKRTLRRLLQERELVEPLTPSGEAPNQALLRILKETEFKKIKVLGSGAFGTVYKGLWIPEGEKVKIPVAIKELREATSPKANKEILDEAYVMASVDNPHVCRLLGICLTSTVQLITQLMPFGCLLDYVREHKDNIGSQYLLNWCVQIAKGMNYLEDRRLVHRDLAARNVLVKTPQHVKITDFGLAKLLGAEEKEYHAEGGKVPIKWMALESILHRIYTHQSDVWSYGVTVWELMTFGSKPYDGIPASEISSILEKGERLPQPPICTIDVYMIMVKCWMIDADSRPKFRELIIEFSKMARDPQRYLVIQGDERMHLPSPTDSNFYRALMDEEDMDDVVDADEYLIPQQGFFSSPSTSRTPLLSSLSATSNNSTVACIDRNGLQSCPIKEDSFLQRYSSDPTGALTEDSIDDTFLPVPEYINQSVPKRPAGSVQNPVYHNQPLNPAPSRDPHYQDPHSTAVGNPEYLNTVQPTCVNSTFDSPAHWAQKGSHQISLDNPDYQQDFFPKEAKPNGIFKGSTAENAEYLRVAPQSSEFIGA

Usually IC50 stands for the point on the concentration scale where inhibition reaches its midpoint. High values mean a need for much substance, low ones inhibition by little substance. For the molecule `C=CC(=O)Nc1cc(Nc2cc(N3OCC[C@@H]3c3cc(F)cc(F)c3)ncn2)c(OC)cc1N1CCC(N2CCN(C3CC3)CC2)CC1` [Compound I, N-[2-[4-(4-cyclopropyl-1-piperazinyl)-1-piperidinyl]-5-[[6-[(3R)-3-(3,5-difluorophenyl)-2-isoxazolidinyl]-4-pyrimidinyl]amino]-4-methoxyphenyl]-2-propenamide], the “Bioavailability profile in plasma and brain” value in data set [1] (oral 3 mg/kg) is “excellent bioavailability profile”. The Unbound brain concentration entry in [1] (oral 3 mg/kg, 8 h) is “below the limit of quantitation (BLOQ)”. Further, the “Unbound brain concentration compared to tucatinib” value in data set [1] (oral, 1 h and 4 h, 3 mg/kg Compound I vs 50 mg/kg tucatinib) is reported as “much higher unbound brain concentration”. Besides, the “Unbound plasma concentration relative to tucatinib” value in [1] (oral, 8 h, 3 mg/kg Compound I vs 50 mg/kg tucatinib) is given as “about 15 fold”. Also, the “Total area under the curve (AUC) higher than that of tucatinib” value in [1] (oral, first eight hours, 3 mg/kg Compound I vs 50 mg/kg tucatinib, brain context) is on record as “about 800%”. Moreover, the “Blood-brain barrier penetration compared to tucatinib” value in data set [1] (oral, 3 mg/kg Compound I vs 50 mg/kg tucatinib) is “superior ability of Compound I to penetrate the blood-brain barrier as compared to tucatinib”. Further, the IC50 against EGFR_L792H worked out at 16 nM; against EGFR WT it was 2.3 ± 1.1 nM; against EGFR_d746-750 G724S it was 3.5 nM; at EGFR_d746-750 S768I, 1 nM; against EGFR_G719C, 0.6 nM; on EGFR_L718Q, 3.7 nM. Also, the IC50 against EGFR_G719S was determined as 0.9 nM; against EGFR_L747S, 1.5 nM.
